# Experimental data: US4731376A, “2-(-(2,2,5,5-tetramethyl-3-pyrrolin-3-carbonyl))-amino derivatives” (Alkaloida Vegyeszeti Gyar, priority 1983, dated 1988)
# Assays:
# mice = assay: acute toxicity on mice (LD50, Litchfield-Wilcoxon, after a week); type: in vivo; conditions: i.v., 95% confidence limits on the next line, 10080 min
# Experimental: (§1) On the basis of the late occurrence of the ventricula extrasystole, ED125 and ED150 values were determined. The acute toxicities were determined on mice (CELP strain and the LD50 value was calculated after a week using the Litchfield-Wilcoxon method. The antiarrhythmically effective dosage or the LD50 value for several compounds of the various compound types are collected in Table III.
# aconitin arrhythmia = aconitin arrhythmia model on rats (time to ventricular extrasystole, tachycardia, fibrillation; ED125, ED150); type: in vivo, Wistar rats; conditions: for time to chamber extrasystol, aconitin infusion / time to chamber tachycardia, aconitin infusion / time to fibrillation, aconitin infusion: 5 minutes before aconitin infusion, X ± S.E.M.; for ED125 / ED150: Rattus norvegicus, iv, 95% confidence limits on the next line; for ED125: infusion time to extrasystol 7.6 (control 6.1 minutes), read-out: ED125 (delay of chamber extrasystol); for ED150: infusion time to extrasystol 9.2 (control 6.1 minutes), read-out: ED150 (delay of chamber extrasystol)
# Experimental: Wistar rats (200-220 g) are narcotized with urethane. The vena jugularis is connected with a polyethylene catheter. Using standard EKG-II leads, a control EKG is taken. The test substance and the physiological saline solution used as control are intravenously administered 5 minutes before the aconitin infusion. The aconitin solution is continuous administered at a dose of 5 mg/kg at a rate of 0.1 ml (100 g/minute) as an infusion into the vena jugularis. The progress is monitored by the EKG isoelectric line.
# During the test the time to formation of the ventricular extrasystole, ventricular tachycardia and fibrillation were determined.
# On the basis of the late occurrence of the ventricula extrasystole, ED125 and ED150 values were determined.
# [1] = acute toxicity on mice (LD50, Litchfield-Wilcoxon, after a week); type: in vivo; conditions: mouse, in vivo, iv, 95% confidence limits on the next line
# Experimental: as §1
Compound,LD50 (acute toxicity) (mice) [mg/kg],"time to chamber extrasystol, aconitin infusion (aconitin arrhythmia; 1.0 mg/kg i.v.) [min]","time to chamber tachycardia, aconitin infusion (aconitin arrhythmia; 1.0 mg/kg i.v.) [min]","time to fibrillation, aconitin infusion (aconitin arrhythmia; 1.0 mg/kg i.v.) [min]","time to chamber extrasystol, aconitin infusion (aconitin arrhythmia; 2.0 mg/kg i.v.) [min]","time to chamber tachycardia, aconitin infusion (aconitin arrhythmia; 2.0 mg/kg i.v.) [min]","time to fibrillation, aconitin infusion (aconitin arrhythmia; 2.0 mg/kg i.v.) [min]","time to chamber extrasystol, aconitin infusion (aconitin arrhythmia; 4.0 mg/kg i.v.) [min]","time to chamber tachycardia, aconitin infusion (aconitin arrhythmia; 4.0 mg/kg i.v.) [min]","time to fibrillation, aconitin infusion (aconitin arrhythmia; 4.0 mg/kg i.v.) [min]",ED125 (aconitin arrhythmia) [mg/kg],ED150 (aconitin arrhythmia) [mg/kg],"time to chamber extrasystol, aconitin infusion (aconitin arrhythmia; 0.5 mg/kg i.v.) [min]","time to chamber tachycardia, aconitin infusion (aconitin arrhythmia; 0.5 mg/kg i.v.) [min]","time to fibrillation, aconitin infusion (aconitin arrhythmia; 0.5 mg/kg i.v.) [min]",further results
Cc1cccc(C)c1NC(=O)C(C)NC(=O)C1=CC(C)(C)NC1(C)C (stereo not shown) [Compound 20],15,7.1 ± 0.49,12.3 ± 0.42,15.5 ± 0.59,9.2 ± 0.65,15.1 ± 0.22,19.5 ± 0.54,11.7 ± 0.50,18.4 ± 0.75,23.5 ± 1.63,1.21,1.91,–,–,–,–
"Cc1cccc(C)c1OCC(C)NC(=O)C1CC(C)(C)NC1(C)C (stereo not shown) [Compound 11, 2-[N-(2,2,5,5-tetramethyl-3-pyrrolidine-3-carbonyl)]-3-(2,6-dimethyl-phenoxy)-amino propane]",–,13.2 ± 1.29,19.3 ± 1.24,23.5 ± 0.42,–,–,–,–,–,–,0.26,0.39,9.9 ± 0.40,15.3 ± 0.52,19.1 ± 0.89,"LD50 at 168 h [1]: 1.96 mg/kg; time to chamber extrasystol, aconitin infusion (aconitin arrhythmia; 0.25 mg/kg i.v.): 7.6 ± 0.24 min; time to chamber tachycardia, aconitin infusion (aconitin arrhythmia; 0.25 mg/kg i.v.): 11.3 ± 0.88 min; time to fibrillation, aconitin infusion (aconitin arrhythmia; 0.25 mg/kg i.v.): 15.9 ± 0.49 min"
"C=CC1CN2CCC1CC2C(O)c1ccnc2ccc(OC)cc12 (stereo not shown) [chinidin, reference compound]",–,–,–,–,–,–,–,–,–,–,6.75,–,–,–,–,"time to chamber extrasystol, aconitin infusion (aconitin arrhythmia; 5.0 mg/kg i.v.): 6.9 ± 0.06 min; time to chamber tachycardia, aconitin infusion (aconitin arrhythmia; 5.0 mg/kg i.v.): 10.4 ± 0.45 min; time to fibrillation, aconitin infusion (aconitin arrhythmia; 5.0 mg/kg i.v.): 13.7 ± 0.44 min; time to chamber extrasystol, aconitin infusion (aconitin arrhythmia; 10.0 mg/kg i.v.): 8.4 ± 0.42 min; time to chamber tachycardia, aconitin infusion (aconitin arrhythmia; 20.0 mg/kg i.v.): 15.7 ± 0.48 min; time to fibrillation, aconitin infusion (aconitin arrhythmia; 20.0 mg/kg i.v.): 18.1 ± 0.22 min"
"Cc1cccc(C)c1OCC(C)NC(=O)C1=CC(C)(C)NC1(C)C (stereo not shown) [Compound 9, 2-[N(2,2,5,5-tetramethyl-2,5-dihydro-3-pyrroline-3-carbonyl)]-3-(2,6-dimethyl-phenoxy)-aminopropane]",11,9.2 ± 0.10,15.3 ± 0.29,20.9 ± 0.50,13.2 ± 1.21,18.9 ± 0.13,24.6 ± 0.79,–,–,–,0.6,0.9,7.2 ± 0.06,11.1 ± 0.68,14.6 ± 0.48,–
Cc1cccc(C)c1NC(=O)CNC(=O)C1=CC(C)(C)NC1(C)C [Compound 19],53,6.6,10.4 ± 2.58,15.1 ± 0.70,–,–,–,9.8 ± 0.34,16.1 ± 2.62,17.4 ± 1.22,1.53,2.44,–,–,–,"time to chamber extrasystol, aconitin infusion (aconitin arrhythmia; 8.0 mg/kg i.v.): 13.8 ± 0.35 min; time to chamber tachycardia, aconitin infusion (aconitin arrhythmia; 8.0 mg/kg i.v.): 27.0 ± 1.10 min; time to fibrillation, aconitin infusion (aconitin arrhythmia; 8.0 mg/kg i.v.): 30.6 ± 1.72 min"
CC1(C)C=C(C(=O)NC(c2ccccc2)c2ccccc2)C(C)(C)N1 [Compound 6],63,–,–,–,–,–,–,–,–,–,5.4,23.1,–,–,–,–
